We go through two compounds from US20140050779A1, “[…]-2 INHIBITORS AND USES THEREOF” (SINGAPORE HEALTH SERVICES PTE. LTD., priority 2011, published 2014).

Molecules are shown by their SMILES. Entries after “also recorded” stand apart in the source; their conditions may differ.

What all share (type): cell-based
The test system of one data set is human SF. Put plainly: effect of TG-2 inhibitors on cultured scleral fibroblast growth (XCELLigence). Here is the method: (§1) To test the effect of TG-2 inhibitors on cultured scleral fibroblast growth, cultured SF cells at passage 4 were treated with TG-2 inhibitors at baseline, 0.1, 1, 10 and 100 μM for 5 days. The SF cell growth was monitored by XCELLigence cell impedance.

In another data set the test system is cultured SF cells. The description is as above. Here is the method: as §1
In a further data set the test system is mouse SF. Described as above. As for the experimental part:
as §1

The next data set relates to TGase 5 transcript. Nature of the data set: qPCR of TGases mRNA in mouse scleral fibroblasts after muscarinic agents. The following applies: 0.01-10 μM for 5 days, qPCR normalized to GAPDH. As for the experimental part: (§2) P2 cultured mouse scleral fibroblasts were treated with atropine or carbachol at different concentrations of 0.01 μM, 0.1 μM, […], 5 μM and 10 μM for 5 days. Following 5 days of treatment, the total RNA was extracted from these cells and TGases transcript level was quantified via qPCR analysis. Height of bars show the means of three independent samples and error bars represent standard deviation. Values are normalized against GAPDH house keeping genes.
(§3) All cells used in examples described herein were between passages 2-4. Passaged cells were plated at a concentration of 2×10^5/mL into 6 well plates containing DMEM with 10% FBS. The cells were seen to attach to the bottom of the culture wells after 4 hours. Old media was removed from wells and 1 mL of drug was added with fresh full medium and incubated at 37° C. Fresh drugs were replaced daily consecutively for the next 5 days to avoid oxidation. The drugs/media was removed and wells were washed twice with 1×PBS. 200 μl of RIPA lysis buffer was added per well and incubated for 5 minutes and cells were scrapped into an eppendorf tube. The cells were stored at −20° C. until sonication. The cells were sonicated on ice thrice at 20% output power for 5 seconds each time and rested 1 minute in between each turn. Cell debris was spun down at 12000 rpm for 20 minutes. The supernatant was poured into a new eppendorf tube and cell concentrations were determined using the Dc Protein assay Kit (Bio-Rad, MA). Passaged cells were plated at a concentration of 1×10^5 into 6 well plates containing DMEM with 10% FBS. The cells were seen to attach to the bottom of the culture wells after 4 hours. Freshly prepared muscarinic agents' at base line, 0.1, 1, 10 and 100 μM concentrations were added for 5 days (Table 2). The culture medium was removed and fresh medium containing the same muscarinic drug added every day to avoid drug changes such as atropine oxidation. Cell lysate was collected for relative quantitative (q) PCR and protein analysis at day 5.
(§4) Total RNA was isolated from cultured human and mouse scleral fibroblasts using TRIzol reagent (Invitrogen life technologies, USA) in accordance with the manufacturer's instructions Chomczynski P, Sacchi N., “Single-step method of RNA isolation by acid guanidinium thiocyanate-phenol-chloroform extraction”, Anal. Biochem. 1987 April; 162(1):156-9. Genomic DNA was removed by digestion with DNase I (Amp Grade; Invitrogen-Gibco) for 15 minutes at room temperature. One microgram of total RNA was reverse-transcribed with random hexamers by using a first-strand cDNA synthesis kit (Invitrogen-Gibco). qPCR was performed in a 384-well plate format on an Roche 480 LightCycler Detection System (Roche Applied Science, Mannheim, Germany) with efficiency corrected software 4.0. PCR was performed using 50 ng of cDNA of each sample. The pre-validated hydrolysis probes for TG-2 were from human and mouse universal probe library (Roche, CA) and the primers for human and mouse are shown in Table 3. GAPDH Internal Standard (Roche) was used as an endogenous control. To standardize and evaluate scleral gene expression, aliquots of the same cDNA (50 ng) preparation were used as templates in all PCR reactions. The data was analyzed by comparative CT (MCT) method as previously described in Brink N, Szamel M, Young A R, Wittern K P, Bergemann J., “Comparative quantification of IL-1, IL-10, Il-10r, TNF and IL-7 mRNA levels in UV-irradiated human skin in vivo”, Inflamm Res. 2000 June; 49(6):290-6.
(In general: Real-time PCR tracks product formation cycle by cycle.)

A further data set relates to TGase-3 transcript. Described as above. The following applies: 0.01-10 μM for 5 days, qPCR normalized to GAPDH. Here is the method: as §2, §3, §4
A further data set deals with TGase 1 transcript. The data set is described as above. To be noted: 0.01-10 μM for 5 days, qPCR normalized to GAPDH. Here is the method:
as §2, §3, §4

For data set [1], the system named is TGase 2 (TGM-2) transcript. The data set is described as above. To be noted: 0.01-10 μM for 5 days, qPCR normalized to GAPDH. As for the experimental part:
as §2
Murine scleral derived fibroblasts were cultured to passage 2 and treated to exogenous atropine or carbachol at 0.01 μM, 0.1 μM, 1 μM, 5 μM and 10 μM for 5 days. Following 5 days of treatment, the total RNA was extracted from these cells and RT-qPCR performed to determine transcript levels of TGM-2. The levels were normalized to GAPDH internal control. […] Height of bars or symbols represents mean and error bars SD. *: p<0.05 and **: p<0.001.
All cells used in examples described herein were between passages 2-4. Passaged cells were plated at a concentration of 2×10^5/mL into 6 well plates containing DMEM with 10% FBS. The cells were seen to attach to the bottom of the culture wells after 4 hours. […] The supernatant was poured into a new eppendorf tube and cell concentrations were determined using the Dc Protein assay Kit (Bio-Rad, MA). […] Cell lysate was collected for relative quantitative (q) PCR and protein analysis at day 5. […]

Data set [2] deals with TG-1. Nature of the data set: Western blot of TG proteins in human scleral fibroblasts after muscarinic agents. To be noted: 0.01-10 μM for 5 days. On the technique in general: In western blotting, separated proteins are transferred to a membrane and probed.
Data set [3] relates to TG-3. The data set is described as above. To be noted: 0.01-10 μM for 5 days.
The subject of data set [4] is TG-5. Put plainly: Western blot of TG proteins in mouse scleral fibroblasts after muscarinic agents. To be noted: 0.01-10 μM for 5 days.
Data set [5] has as its system TG-2. Put plainly: TG-2 colorimetric microassay (transamidase activity) in lysate of treated mouse scleral fibroblasts. The following applies: murine scleral derived fibroblasts, 0.01-10 μM for 5 days.
Data set [6] deals with TG-3. Nature of the data set: Western blot of TG proteins in mouse scleral fibroblasts after muscarinic agents. To be noted: 0.01-10 μM for 5 days. Here is the method:
as §3
(§5) The cells were lysed by sonification in 1×RIPA lysis buffer (santa cruz biotechnology, Sc-24948) with 10 μl PMSF solution, 10 μl sodium orthovanadate solution and 20 μl protease inhibitor cocktail solution. After centrifugation at 20,000×g at 4° C. for 20 minutes, and the supernatant collected. The protein content in the supernatants was measured using the DC Protein Assay kit (Bio-Rad, MA) following the manufacturer's instructions. Samples were stored at −80° C. until assayed.
(§6) The mouse and human scleral fibroblasts were treated with atropine or carbachol at 0.01, 0.1, 1, 5 and 10 μM concentrations for 5 days. Following 5 days of treatment, the total cellular protein was extracted from these cells and TG proteins detected via Western blot analysis.
(§7) Human and, mouse scleral fibroblast proteins in the supernatant were separated by SDS-PAGE, transferred to nitrocellulose membranes, blocked in 5% BSA in TBST (10 mM Tris-HCl [pH 8.0], 150 mM NaCl, and […] Tween-20) for 2 hours at room temperature, and incubated with the same anti-TG-2 antibody described herein at a dilution of 1:1000 and anti β-tubulin antibodies used as a positive control, for 1 hour at room temperature. The membranes were washed 3 times in TBST and incubated with HRP-conjugated secondary antibody (Chemicon International) at a dilution of 1:2500 for 1 hour at room temperature. Immunoreactive bands were visualized using the enhanced chemiluminescence method (GE Healthcare, Buckinghamshire, UK). The membrane was wrapped in plastic and placed against an X-ray film to expose for an appropriate length of time (30 seconds-5 minutes).

Data set [7] deals with TG-2. The data set is described as above. To be noted: 0.01-10 μM for 5 days, Western blot. As for the experimental part: as §3, §5, §6, §7
For data set [8], the system named is TG-1. Described as above. To be noted: 0.01-10 μM for 5 days. Here is the method: as §3, §5, §6, §7
The subject of data set [9] is TG-5. Put plainly: Western blot of TG proteins in human scleral fibroblasts after muscarinic agents. To be noted: 0.01-10 μM for 5 days.

As to `CN(C)c1cccc2c(S(=O)(=O)NCCCCCN)cccc12` [MDC, Monodansyl caderverine], the “concentration at which effective on SF cell growth” value was 10 µM with human SF and 50 µM in the data set on mouse SF. In the data set on cultured SF cells, the “effect of the higher concentrations on SF cells” value is “cell death and morphological change”.
For `C[N+](C)(C)CCOC(N)=O` [carbachol], the “TGase 5 transcript level” value with TGase 5 transcript is reported as “increased only by relatively higher concentrations”. The TGase-3 transcript level result in the data set on TGase-3 transcript was “opposite findings”. The “TGase 1 transcript level” value in the data set with TGase 1 transcript is recorded as “increased only by relatively higher concentrations”. Besides, the “TGase 2 (TGM-2) transcript level” value in [1] is reported as “opposite effect; also recorded: opposite findings”. Moreover, the TG-1 protein level entry with TG-1 [2] and with TG-1 [8] was “the converse was true; also recorded: increased” each time. For the same compound, the TG-3 protein level entry in the data set with TG-3 [3] and in the data set on TG-3 [6] was “the converse observed; also recorded: decreased” each time. Further, the TG-5 protein level entry with TG-5 [4] and with TG-5 [9] was “the converse was true; also recorded: increased” in each case. Moreover, the “transamidase (cross-linking) activity of TG-2” value with TG-2 [5] was “opposite effects”. Also, the TG-2 protein level entry in the data set on TG-2 [7] is recorded as “increased; also recorded: opposite effect”.
